# Assay results as given in ChEMBL document CHEMBL5385972, “New azole derivatives linked to indole/indoline moieties combined with FLC against drug-resistant Candida albicans” (2024).
# Activity calls are given as the source filed them. The calls are words filed in the database; no cut-off is given here.
# Legend:
# Candida albicans [1] = assay: Antifungal activity against Candida albicans SC5314 assessed as inhibition of fungal growth incubated for 24 hrs by microdilution assay; assay type: functional
# Candida albicans [2] = assay: Synergistic antifungal activity against Candida albicans SC5314 assessed as inhibition of fungal growth incubated for 24 hrs in presence of fluconazole by microdilution assay; assay type: functional
# Candida albicans [3] = assay: Synergistic antifungal activity against FLC-resistant Candida albicans SC5314 assessed as inhibition of fungal growth incubated for 24 hrs in presence of fluconazole by microdilution assay; assay type: functional
# Candida albicans [4] = assay: Synergistic antifungal activity against Candida albicans SC5314 assessed as fractional inhibitory concentration index incubated for 24 hrs in presence of fluconazole by microdilution assay; assay type: functional
# Candida albicans [5] = assay: Synergistic antifungal activity against FLC-resistant Candida albicans SC5314 assessed as fractional inhibitory concentration index incubated for 24 hrs in presence of fluconazole by microdilution assay; assay type: functional
# Candida albicans [6] = assay: Antifungal activity against FLC-resistant Candida albicans SC5314 assessed as inhibition of fungal growth incubated for 24 hrs by microdilution assay; assay type: functional
# Candida albicans [7] = assay: Antifungal activity against FLC-resistant Candida albicans SC5314 assessed as inhibition of fungal growth at 3 ug/ml incubated for 48 hrs by time-kill assay; assay type: functional, organism-based; conditions: dose 3.0 µg/ml
# Cell membrane [8] = assay: Induction of […] membrane permeabilization in Candida albicans SC5314 by measuring red fluorescence at 3 ug/ml incubated for 16 to 24 hrs by propyl iodide dye based fluorescence microscopic analysis; assay type: subcellular; conditions: dose 3.0 µg/ml, time 16-24 hrs
# Candida albicans [9] = assay: Antifungal activity against Candida albicans SC5314 assessed as morphological change at 3 ug/ml incubated for 24 hrs by transmission electron microscopic analysis; assay type: functional, organism-based; conditions: dose 3.0 µg/ml
# Candida albicans [10] = assay: Inhibition of mitochondrial function in Candida albicans SC5314 assessed as reduction in ATP production at 3 ug/ml incubated for 16 hrs by chemiluminescence assay; assay type: functional; conditions: dose 3.0 µg/ml
# Candida albicans [11] = assay: Antifungal activity against FLC-resistant Candida albicans SC5314 assessed as inhibition of fungal growth at 3 to 9 ug/ml incubated for 48 hrs by time-kill assay; assay type: functional, organism-based; conditions: dose 3-9 µg/ml
# Candida albicans [12] = assay: Synergistic antifungal activity against FLC-resistant Candida albicans SC5314 assessed as inhibition of fungal growth incubated for 48 hrs in presence of fluconazole by time-kill assay; assay type: functional, organism-based
# Candida albicans [13] = assay: Antifungal activity against Candida albicans SC5314 assessed as inhibition of fungal growth at 3 to 9 ug/ml incubated for 24 hrs by crystal violet staining based inverted microscopic analysis; assay type: functional, organism-based; conditions: dose 3-9 µg/ml
# Candida albicans [14] = assay: Antifungal activity against Candida albicans SC5314 assessed as decrease in mycelial growth at 3 to 9 ug/ml incubated for 24 hrs by crystal violet staining based inverted microscopic analysis; assay type: functional, organism-based; conditions: dose 3-9 µg/ml
# Cell membrane [15] = assay: Induction of […] membrane permeabilization in Candida albicans SC5314 by measuring red fluorescence at 3 to 9 ug/ml incubated for 16 to 24 hrs by propyl iodide dye based fluorescence microscopic analysis; assay type: subcellular; conditions: dose 3-9 µg/ml, time 16-24 hrs
# Cell membrane [16] = assay: Induction of […] membrane permeabilization in Candida albicans SC5314 by measuring red fluorescence incubated for 16 to 24 hrs in presence of fluconazole by propyl iodide dye based fluorescence microscopic analysis; assay type: subcellular; conditions: time 16-24 hrs
# Candida albicans [17] = assay: Antifungal activity against Candida albicans SC5314 assessed as morphological change at 3 to 9 ug/ml incubated for 24 hrs by transmission electron microscopic analysis; assay type: functional, organism-based; conditions: dose 3-9 µg/ml
# Candida albicans [18] = assay: Synergistic antifungal activity against Candida albicans SC5314 assessed as leakage of intracellular debris incubated for 24 hrs in presence of fluconazole by transmission electron microscopic analysis; assay type: functional, organism-based
# Candida albicans [19] = assay: Synergistic antifungal activity against Candida albicans SC5314 assessed as appearance of incomplete cell wall structure incubated for 24 hrs in presence of fluconazole by transmission electron microscopic analysis; assay type: functional, organism-based
# Candida albicans [20] = assay: Synergistic antifungal activity against Candida albicans SC5314 assessed as increase in intracellular ROS production incubated for 16 hrs in presence of fluconazole by DCFH-DA staining based ELISA; assay type: functional, organism-based
# Candida albicans [21] = assay: Synergistic antifungal activity against Candida albicans SC5314 assessed as decrease in intracellular mitochondrial membrane potential incubated for 16 hrs in presence of fluconazole by JC-1 staining based fluorescence assay; assay type: functional, organism-based
# Candida albicans [22] = assay: Inhibition of mitochondrial function in Candida albicans SC5314 assessed as reduction in ATP production at 3 to 9 ug/ml incubated for 16 hrs by chemiluminescence assay; assay type: functional; conditions: dose 3-9 µg/ml
# Candida albicans [23] = assay: Synergistic antifungal activity against Candida albicans SC5314 assessed as reduction in ATP production incubated for 16 hrs in presence of fluconazole by chemiluminescence assay; assay type: functional, organism-based
# Cell membrane [24] = assay: Induction of […] membrane permeabilization in Candida albicans SC5314 by measuring red fluorescence incubated for 16 to 24 hrs in presence of fluconazole by propyl iodide dye based multifunctional microplate reader analysis; assay type: subcellular; conditions: time 16-24 hrs
SMILES,MIC50 (Candida albicans [1]) [µg/mL],MIC50 (Candida albicans [2]) [µg/mL],MIC50 (Candida albicans [3]) [µg/mL],fractional inhibitory concentration index (FICI) (Candida albicans [4]),fractional inhibitory concentration index (FICI) (Candida albicans [5]),also measured
COc1ccc2ccn(CCC(=O)NCCNCC(O)COC(Cn3cncn3)c3ccc(F)cc3F)c2c1 (stereo not given),> 200,1.87,52.5,1.39,0.26,–
O=C(CCn1ccc2cc(Br)ccc21)NCCNCC(O)COC(Cn1cncn1)c1ccc(F)cc1F (stereo not given),> 200,0.85,12.9,0.63,0.06,–
O=C(CCn1ccc2ccc(Br)cc21)NCCNCC(O)COC(Cn1cncn1)c1ccc(F)cc1F (stereo not given),> 200,0.95,11.5,0.71,0.06,–
OC(Cn1cncn1)(Cn1cncn1)c1ccc(F)cc1F [FLUCONAZOLE],1.35,–,–,–,–,MIC50 (Candida albicans [6]): > 200 µg/mL; Activity (Candida albicans [7]): Active; Activity (Cell membrane [8]): Active; Activity (Candida albicans [9]): Active; Activity (Candida albicans [10]): inactive
O=C(CCN1CCc2cc(Cl)ccc21)NCCNCC(O)COC(Cn1cncn1)c1ccc(F)cc1F (stereo not given),> 200,1.77,14,1.31,0.07,–
O=C(CCn1ccc2cc(Cl)ccc21)NCCNCC(O)COC(Cn1cncn1)c1ccc(F)cc1F (stereo not given),> 200,0.83,18.9,0.62,0.09,–
O=C(CCN1CCc2ccc(F)cc21)NCCNCC(O)COC(Cn1cncn1)c1ccc(F)cc1F (stereo not given),> 200,2.68,18.9,1.99,0.09,–
O=C(CCN1CCc2ccc(Br)cc21)NCCNCC(O)COC(Cn1cncn1)c1ccc(F)cc1F (stereo not given),> 200,0.6,8.92,0.44,0.04,–
Cc1ccc2c(c1)CCN2CCC(=O)NCCNCC(O)COC(Cn1cncn1)c1ccc(F)cc1F (stereo not given),> 200,2.03,10.2,1.51,0.05,–
O=C(CCN1CCc2ccc(Cl)cc21)NCCNCC(O)COC(Cn1cncn1)c1ccc(F)cc1F (stereo not given),> 200,0.35,9.22,0.26,0.05,–
O=C(CCn1ccc2ccc(Cl)cc21)NCCNCC(O)COC(Cn1cncn1)c1ccc(F)cc1F (stereo not given),> 200,0.89,20,0.66,0.1,–
O=C(CCN1CCc2cc(Br)ccc21)NCCNCC(O)COC(Cn1cncn1)c1ccc(F)cc1F (stereo not given),> 200,1.14,2.82,0.85,0.01,Activity (Candida albicans [11]): inactive; Activity (Candida albicans [12]): Dose-Dependent Effect; Activity (Candida albicans [13]): inactive; Activity (Candida albicans [14]): inactive; Activity (Cell membrane [15]): inactive; Activity (Cell membrane [16]): Dose-Dependent Effect; Activity (Candida albicans [17]): inactive; Activity (Candida albicans [18]): Dose-Dependent Effect; Activity (Candida albicans [19]): Dose-Dependent Effect; Activity (Candida albicans [20]): Dose-Dependent Effect; Activity (Candida albicans [21]): Dose-Dependent Effect; Activity (Candida albicans [22]): inactive; Activity (Candida albicans [23]): Dose-Dependent Effect; Activity (Cell membrane [24]): Dose-Dependent Effect
O=C(CCn1ccc2ccc(F)cc21)NCCNCC(O)COC(Cn1cncn1)c1ccc(F)cc1F (stereo not given),> 200,0.79,33.9,0.59,0.17,–
CC1Cc2ccccc2N1CCC(=O)NCCNCC(O)COC(Cn1cncn1)c1ccc(F)cc1F (stereo not given),> 200,9.22,67.7,6.85,0.34,–
COc1ccc2c(c1)N(CCC(=O)NCCNCC(O)COC(Cn1cncn1)c1ccc(F)cc1F)CC2 (stereo not given),> 200,11.6,111,8.64,0.56,–
O=C(CCN1CCc2ccccc21)NCCNCC(O)COC(Cn1cncn1)c1ccc(F)cc1F (stereo not given),> 200,5.84,42.6,4.34,0.21,–
O=C(CCn1ccc2ccccc21)NCCNCC(O)COC(Cn1cncn1)c1ccc(F)cc1F (stereo not given),> 200,8.42,50,6.26,0.25,–
